From PMC8562569 (Nature cancer, 2021)

Biological target: PIKfyve (Homo sapiens, UniProt Q9Y2I7)
Experiment: cellular thermal shift assay in VCaP cells, […], […] h
Assay type: cell-based

Sequence of PIKfyve (Q9Y2I7 2-2098): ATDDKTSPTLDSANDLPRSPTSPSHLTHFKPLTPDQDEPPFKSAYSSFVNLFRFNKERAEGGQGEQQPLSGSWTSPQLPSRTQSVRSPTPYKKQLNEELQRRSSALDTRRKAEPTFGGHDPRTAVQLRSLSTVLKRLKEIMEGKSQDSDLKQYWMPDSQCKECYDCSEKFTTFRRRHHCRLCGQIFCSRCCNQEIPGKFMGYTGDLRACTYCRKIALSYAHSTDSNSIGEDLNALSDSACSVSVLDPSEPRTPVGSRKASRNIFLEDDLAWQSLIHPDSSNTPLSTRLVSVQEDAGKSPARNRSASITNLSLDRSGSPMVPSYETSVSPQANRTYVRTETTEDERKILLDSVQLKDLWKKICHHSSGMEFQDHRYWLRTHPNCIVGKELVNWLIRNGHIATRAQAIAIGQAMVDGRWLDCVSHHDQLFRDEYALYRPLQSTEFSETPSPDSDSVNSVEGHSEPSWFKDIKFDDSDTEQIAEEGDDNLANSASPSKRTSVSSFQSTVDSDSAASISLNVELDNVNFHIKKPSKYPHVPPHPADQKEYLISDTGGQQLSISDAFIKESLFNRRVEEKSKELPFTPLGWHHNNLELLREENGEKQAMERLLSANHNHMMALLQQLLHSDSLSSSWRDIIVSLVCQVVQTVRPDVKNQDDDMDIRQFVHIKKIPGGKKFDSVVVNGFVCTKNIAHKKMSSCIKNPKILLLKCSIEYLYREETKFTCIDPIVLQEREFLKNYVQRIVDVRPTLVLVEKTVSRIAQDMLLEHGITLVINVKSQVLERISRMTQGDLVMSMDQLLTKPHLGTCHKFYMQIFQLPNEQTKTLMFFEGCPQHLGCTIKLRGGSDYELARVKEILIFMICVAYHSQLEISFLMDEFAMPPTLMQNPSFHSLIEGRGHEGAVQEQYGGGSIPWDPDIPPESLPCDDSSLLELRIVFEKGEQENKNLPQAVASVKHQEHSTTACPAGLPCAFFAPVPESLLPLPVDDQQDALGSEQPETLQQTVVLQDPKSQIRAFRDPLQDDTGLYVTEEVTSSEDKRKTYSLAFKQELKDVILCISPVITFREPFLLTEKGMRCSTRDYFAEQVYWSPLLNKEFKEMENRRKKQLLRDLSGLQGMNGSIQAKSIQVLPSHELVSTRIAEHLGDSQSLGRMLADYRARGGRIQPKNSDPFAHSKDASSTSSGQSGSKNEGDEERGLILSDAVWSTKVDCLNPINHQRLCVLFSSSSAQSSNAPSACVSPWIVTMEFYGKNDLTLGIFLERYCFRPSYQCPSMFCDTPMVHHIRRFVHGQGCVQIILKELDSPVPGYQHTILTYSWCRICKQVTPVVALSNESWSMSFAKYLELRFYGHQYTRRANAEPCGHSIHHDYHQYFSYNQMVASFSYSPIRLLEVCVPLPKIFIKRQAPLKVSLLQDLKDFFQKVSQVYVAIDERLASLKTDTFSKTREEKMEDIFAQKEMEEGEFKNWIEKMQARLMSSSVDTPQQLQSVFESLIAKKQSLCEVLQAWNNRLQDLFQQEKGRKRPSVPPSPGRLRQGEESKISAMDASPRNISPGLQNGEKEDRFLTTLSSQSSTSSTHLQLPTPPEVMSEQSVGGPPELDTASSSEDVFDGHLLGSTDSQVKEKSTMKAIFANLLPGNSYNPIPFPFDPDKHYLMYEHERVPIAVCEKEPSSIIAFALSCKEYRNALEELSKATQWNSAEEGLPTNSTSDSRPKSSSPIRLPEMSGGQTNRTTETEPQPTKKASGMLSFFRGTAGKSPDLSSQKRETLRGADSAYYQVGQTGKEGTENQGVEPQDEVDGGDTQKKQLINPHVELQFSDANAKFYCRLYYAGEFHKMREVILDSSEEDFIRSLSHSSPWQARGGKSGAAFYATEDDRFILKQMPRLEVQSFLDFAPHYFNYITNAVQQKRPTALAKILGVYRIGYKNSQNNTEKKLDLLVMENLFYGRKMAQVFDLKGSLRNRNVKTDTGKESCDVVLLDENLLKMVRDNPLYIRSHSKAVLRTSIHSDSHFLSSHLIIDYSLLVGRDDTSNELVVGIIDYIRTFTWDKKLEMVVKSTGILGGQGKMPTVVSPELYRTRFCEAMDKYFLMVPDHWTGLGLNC

Cc1cccc(/C=N/Nc2cc(N3CCOCC3)nc(OCCc3ccccn3)n2)c1 [apilimod]
cellular thermal shift assay in VCaP cells, 1 μM, 2 h: cellular thermal shift assay in VCaP cells, with the known PIKfyve inhibitor apilimod serving as a positive control
